Experimental data from patent US5976797A, “Method for quantifying total mRNA with poly(A)-complementary oligonucleotide-immobilized microtiter plate” (Hitachi Chemical Co., Ltd., priority 1996, dated 1999).
In brackets after ≈: the same amount, converted by molar mass.

Assays:
U937 cells = assay: quantification of cytosolic mRNA after PMA-induced differentiation, U937 cells; assay type: cell-based, human
Description: (§1) We obtained from the respective suppliers human Jurkat, Molt-4, U937, and HL-60 cells (American Type Culture Collection, Rockville, Md.); MICROFAST TRACK™ 228 Kit (mRNA purification kit using oligo-(dT) cellulose, (Invitrogen, San Diego, Calif.); cell culture media, fetal calf serum, (FCS: fatal calf serum), phosphate-buffered saline (PBS: phosphate-buffered saline), rabbit globin mRNA, and vanadyl-ribonucleosidecomplex (VRC: vanadyl-ribonucleoside complex; Gibco-BRL, Baithersburg, Md.); Isolymph (Gallard-Schlesinger, Carle Place, N.Y.); calf thymus DNA (Clontech, Palo Alto, Calif.); DNase (Boehringer Mannheim, Indianapolis, Ind.); RNase (Stratagene, La Jolla, Calif.); and GENEPLATE™ (oligonucleotide-immobilized microplate,(Hitachi Chemical Research Center, Irvine Calif. and Hitachi Chemical Co., Ibaraki, Japan). All other chemicals were purchased from Sigma Chemical Co. (St. Louis, Mis.). Oligonucleotides were synthesized by a synthesizer (Applied Biosystems, San Jose, Calif.), according to the manufacturer's protocol.
(§2) Human Jurkat and Molt-4 cells were grown in RPMI 1640 containing 100 U/mL penicillin, 100 μg/mL streptomycin, and 100 mL/L FCS at 37° C. in CO2 :air, 5:95 (by vol). […] Each cell line was subcultured two to three times a week, and viability was always >90%, as assessed by the exclusion of trypan blue. The number of cells was determined with a hemocytometer. […]

HL-60 cells = assay: quantification of cytosolic mRNA after PMA-induced differentiation, HL-60 cells; assay type: cell-based, human
Description: as §1, §2

[1] = tested on: U937 human histiocytic lymphomas cell line; assay: MTT assay, U937 cells; assay type: cell-based; settings: for IC50: Homo sapiens, U-937; for IC50 / IC50 (MTT): mean ± SD, n = 4
Experimental: (§3) The CaR-1 human colon cancer cell line (JCRB0207) was a gift from Dr. K. Miyazaki (Kihara Institute for Biological Research, Yokohama, Japan). YOYO-1™ was purchased from Molecular Probes (Eugene, Oreg.). All other chemicals were purchased from Sigma (St. Louis, Mis.). Oligonucleotides were synthesized by a synthesizer (Applied Biosystems, San Jose, Calif.) according to the manufacturer's protocol.
(§4) U937, HL-60 and CaR-1 cells were grown in RPMI 1640 containing 50 units/ml penicillin, 50 μg/ml streptomycin, and 10% FCS at 37° C. in 5% CO2, 95% air. HepG2 cells were grown in Eagle's minimum essential medium (MEM) with 0.1 mM nonessential amino acids, 1 mM sodium pyruvate and Earle's balance solution (BSS). Floating cells were subcultured two to three times a week and adherent cells were removed by trypsinization and subcultured two to four times a month. Initial cell viability was always more than 95% as assessed by the exclusion of trypan blue (Ausubel et al., Current Protocols in Molecular Biology, John Wiley & Sons 1988; 11.5.1-11.5.2). The number of cells was determined in a hemocytometer.
(§5) The following drugs have been tested using the reported peak plasma concentrations (PPCs) achieved during intravenous administration of clinical doses (Werner et al., Cancer Treat Rep 1986; 70:1379-1382). […] The drugs were tested at 0.001, 0.01, 0.1, 1.0 and 10× PPC. Vinblastine was occasionally tested at 100× PPC.
(§6) Cells were suspended in medium supplemented with 10% FCS, and 100 μl of single cell suspension containing 1×10^5 cells were added to the individual wells on 96 well microtiter plates. One hundred μl of anticancer drugs were added to each well to give the final concentrations as indicated above. The plates were incubated at 37° C. in a humidified atmosphere containing 5% CO2 in air for various periods. Twenty μl of 0.25% MTT in PBS was added to each well, and plates were incubated for an additional three hours. After centrifugation, supernatant solutions were removed and 200 μl of dimethyl sulfoxide were added to dissolve formazon products, and the plates were shaken for five minutes on a plate shaker (IS-963, Tomy, Palo Alto, Calif.). The absorbance of the well was read on a microplate spectrophotometer (Thermo max, Molecular Device, Mountain View, Calif.) using wavelength at 560 nm.
(§7) Chemosensitivity was assessed for both continuous drug exposure and transient exposure (two hours). Total cytosolic poly(A)+ mRNA was measured as described in the Methods.
(§8) U937 cells were seeded at a density of 1×10^6 cells/ml in RPMI containing 10% FCS in a 96-well plate for MTT assay (.gradient.,.quadrature.) and a 24-well plate for the mRNA assay (.circle-solid.,.tangle-soliddn.). […] The values indicated in the means±standard error of triplicate determinations from a single experiment. Similar results were reproduced in more than three independent experiments (data not shown). […] MTT and mRNA assays were carried out as described in the Methods. The data obtained from the three-day MTT assay with 1× PPC (x-axis) were compared with those of the 12-hour mRNA assay with 10× PPC (y-axis). FIG. 8D (Total) is a mixture of FIGS. 8A-8C. Each point represents the means of triplicate determinations.

[2] = tested on: CaR-1 human colon cancer cell line; assay: total mRNA assay (GENEPLATE, YOYO-1), CaR-1 cells; assay type: cell-based; settings: mean ± SD, n = 4; for IC50: Homo sapiens
Experimental: as §3, §4, §5
(§9) Detailed procedures were described in our previous publication (Tominaga et al., Clin. Chem. 1996; 42:11, 1750-1757). In brief, 1 ml of cell suspension containing 5×10^5 cells were plated to each well of 12-well tissue culture plates for various periods, and each drug was exposed continuously or for two hours. Harvested cultured cells were washed with PBS one to two times. Cells were then resuspended in 200 μl of diethylpyrocarbonate (DEPC) -treated lysis buffer (10 mM Tris, pH7.5, 1 mM EDTA, 0.5M NaCl, 0.5% NP-40 and 20 mM VRC for five minutes on ice, then immediately centrifuged at 15,000 xg at 4° C. for five minutes. Fifty μl each of the supernatant was applied to the GENEPLATE™ (oligonucleotide-immobilized microplate) (Mitsuhashi et al., Nature 1992, 357:519-520). After one hour incubation at room temperature, unbound non-mRNA was removed by aspiration and washed with a low salt buffer (10 mM Tris, pH 7.6, 1 mM EDTA, 0.1 M naCl) three times. Fifty μl of YOYO-1™ in the final dilution of 1:1000 in TAE buffer (40 mM Tris-acetate, pH 8.0, 1 mM EDTA) was added to each well, and the fluorescence intensity of each well was measured by a fluorescent plate reader (CytoFlour™ 2300, Millipore, Bedford, Mass.) with excitation and emission wavelengths of 485 nm (bandwidth 20 nm) and 530 nm (bandwidth 25 nm), respectively, as previously described (Glazer et al., Nature 1992;359:859-861 and Ogura et al., Biotechniques 1994; 18:231-232).
as §7

[3] = tested on: U937 human histiocytic lymphomas cell line; assay: total mRNA assay (GENEPLATE, YOYO-1), U937 cells; assay type: cell-based; settings: mean ± SD, n = 4; for IC50: Homo sapiens, U-937
Experimental: as §3, §4
The drugs were tested at 0.001, 0.01, 0.1, 1.0 and 10× PPC. Vinblastine was occasionally tested at 100× PPC.
as §9, §7, §8

[4] = tested on: CaR-1 human colon cancer cell line; assay: MTT assay, CaR-1 cells; assay type: cell-based; settings: mean ± SD, n = 4; for IC50: Homo sapiens
Experimental: as §3, §4, §5, §6, §7

[5] = tested on: HL-60 human promyelocytic leukemia cell line; assay: MTT assay, HL-60 cells; assay type: cell-based; settings: mean ± SD, n = 4; for IC50: Homo sapiens, HL-60
Experimental: as §3, §4, §5, §6, §7

[6] = tested on: HepG2 human hepatocellular line; assay: total mRNA assay (GENEPLATE, YOYO-1), HepG2 cells; assay type: cell-based; settings: mean ± SD, n = 4; for IC50: Homo sapiens
Experimental: as §3, §4, §5, §9, §7

[7] = tested on: HL-60 human promyelocytic leukemia cell line; assay: total mRNA assay (GENEPLATE, YOYO-1), HL-60 cells; assay type: cell-based; settings: mean ± SD, n = 4; for IC50: Homo sapiens, HL-60
Experimental: as §3, §4, §5, §9, §7

[8] = tested on: HepG2 human hepatocellular line; assay: MTT assay, HepG2 cells; assay type: cell-based; settings: mean ± SD, n = 4; for IC50: Homo sapiens
Experimental: as §3, §4, §5, §6, §7

[9] = 48 h after PMA treatment (160 nmol/L), n=8, P<0.01
[10] = phorbol ester-induced differentiated
[11] = U937, continuous exposure 72 hours
[12] = U937, transient exposure 2 hours
[13] = CaR-1, continuous exposure 72 hours
[14] = CaR-1, transient exposure 2 hours
[15] = HL60, continuous exposure 72 hours
[16] = HL60, transient exposure 2 hours
[17] = HepG2, continuous exposure, printed 82 hours
[18] = HepG2, transient exposure 2 hours

Row | SMILES | IC50 [1, 11] [µg/mL] | IC50 [1, 12] [µg/mL] | IC50 [2, 13] [µg/mL] | IC50 [2, 14] [µg/mL] | IC50 [3, 11] [µg/mL] | IC50 [3, 12] [µg/mL] | IC50 [4, 13] [µg/mL] | IC50 [4, 14] [µg/mL] | IC50 [5, 15] [µg/mL] | IC50 [5, 16] [µg/mL] | IC50 [6, 17] [µg/mL] | IC50 [6, 18] [µg/mL] | IC50 [7, 15] [µg/mL] | IC50 [7, 16] [µg/mL] | IC50 [8, 17] [µg/mL] | IC50 [8, 18] [µg/mL] | further results
1 | CCCCCCCCCCCCCC(=O)O[C@@H]1[C@@H](C)[C@@]2(O)[C@@H](C=C(CO)C[C@]3(O)C(=O)C(C)=C[C@@H]23)[C@@H]2C(C)(C)[C@]12OC(C)=O [PMA, phorbol 12-myristate 13-acetate] | – | – | – | – | – | – | – | – | – | – | – | – | – | – | – | – | mRNA content in 10^6 differentiated U937 cells (U937 cells; [9]): 145.3±13.9 μg/mL; amount of cytosolic mRNA in differentiated U937 cells (U937 cells; [10]): 145.3±13.9 ng/10^6 cells; mRNA content in 10^6 differentiated HL-60 cells (HL-60 cells; [9]): 164.7±11.6 μg/mL; amount of cytosolic mRNA in differentiated HL-60 cells (HL-60 cells; [10]): 164.7±11.6 ng/10^6 cells
2 | CC[C@]1(O)C[C@@H]2CN(CCc3c([nH]c4ccccc34)[C@@](C(=O)OC)(c3cc4c(cc3OC)N(C)[C@H]3[C@@](O)(C(=O)OC)[C@H](OC(C)=O)[C@]5(CC)C=CCN6CC[C@]43[C@@H]65)C2)C1 [Vinblastine, vinblastine] | < 0.0005 | 0.034 ± 0.003 (≈ 0.0419 µM) | 34.9 ± 4.8 (≈ 43 µM) | > 50 | < 0.0005 | 0.029 ± 0.001 (≈ 0.0358 µM) | 22.2 ± 14.4 (≈ 27.3 µM) | > 50 | < 0.0005 | 0.026 ± 0.001 (≈ 0.0321 µM) | 3.45 ± 0.63 (≈ 4.25 µM) | 34.6 ± 1.75 (≈ 42.7 µM) | < 0.0005 | 0.031 (≈ 0.0382 µM) | 32.6 ± 8.46 (≈ 40.2 µM) | > 50 | –
3 | CO[C@@]12[C@H](COC(N)=O)C3=C(C(=O)C(C)=C(N)C3=O)N1C[C@@H]1N[C@@H]12 [Mitomycin C, mitomycin C] | 0.29 ± 0.01 (≈ 0.867 µM) | 2.46 ± 0.04 (≈ 7.36 µM) | 2 ± 0.16 (≈ 5.98 µM) | 21.3 ± 0.95 (≈ 63.7 µM) | 0.23 ± 0.03 (≈ 0.688 µM) | 2.01 ± 0.11 (≈ 6.01 µM) | 2.12 ± 0.08 (≈ 6.34 µM) | 21.3 (≈ 63.7 µM) | 0.045 (≈ 0.135 µM) | 1.34 ± 0.01 (≈ 4.01 µM) | 1.89 ± 0.06 (≈ 5.65 µM) | 36.9 (≈ 110 µM) | 0.22 ± 0.01 (≈ 0.658 µM) | 2.29 (≈ 6.85 µM) | 2.08 ± 0.09 (≈ 6.22 µM) | 24.2 ± 0.81 (≈ 72.4 µM) | –
4 | N.N.[Cl][Pt][Cl] [Cisplatin, cisplatin] | – | – | – | – | – | – | – | – | – | – | – | – | – | – | – | – | time after drug treatment at which similar reduction was observed, MTT assay ([1]; U937, 10× PPC, continuous exposure): 48 h; IC50 (MTT) [1, 11]: 1.77 ± 0.05 µg/mL; IC50 (MTT) [1, 12]: 22.65 ± 0.03 µg/mL; IC50 (mRNA) [2, 13]: 3.09 ± 0.34 µg/mL; IC50 (mRNA) [2, 14]: > 20 µg/mL; IC50 (mRNA) [3, 11]: 1.58 ± 0.39 µg/mL; IC50 (mRNA) [3, 12]: 18.52 ± 4.69 µg/mL; IC50 (MTT) [4, 13]: 3.08 ± 0.54 µg/mL; IC50 (MTT) [4, 14]: > 20 µg/mL; IC50 (MTT) [5, 15]: 1.14 ± 0.01 µg/mL; IC50 (MTT) [5, 16]: 12.68 ± 0.30 µg/mL; IC50 (mRNA) [6, 17]: 9.81 ± 0.64 µg/mL; IC50 (mRNA) [6, 18]: > 20 µg/mL; IC50 (mRNA) [7, 15]: 1.21 µg/mL; IC50 (mRNA) [7, 16]: 9.30 µg/mL; IC50 (MTT) [8, 17]: 8.86 ± 0.40 µg/mL; IC50 (MTT) [8, 18]: > 20 µg/mL
